In US9427415B2, “Methods and compositions for modifying sensorial perception” (The Procter & Gamble Company, priority 2014, dated 2016):
Several values for one entry are separate records, joined by “and”; a condition that tells them apart may be missing. Equal values may be shown once. Read-outs that look alike come from different tables or passages of the source.

How the values were obtained:
TRPA1V1 = assay: Intracellular calcium (Fluo-4, FLIPR) activation of TRPA1V1 cells (co-expressing TRPA1 and TRPV1) by GRAS compounds; type: cell-based, human;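 further: HEK293 cells co-expressing TRPA1 and TRPV1, fluorescence read at 488/514 nm after baseline subtraction, recorded every 2 s over 10 min, ionomycin 10 µM and buffer as controls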
human TRPA1 = target: T1, human TRPA1 (Homo sapiens, UniProt O75762, K186N/R3C/R58T); assay: Intracellular calcium (Fluo-4, FLIPR) activation of TRPA1 cells by GRAS compounds; type: cell-based; settings: for activation at 1000 µM / activation at 100 µM: read-out: A1 activation, % of agonist value;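 on all read-outs here: TRPA1-expressing cells, fluorescence read on a FLIPR Tetra (ex 488 nm, em 514 nm) every 2 s for 10 min after compound addition, baseline subtracted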
T1 construct: expressed in transfected cells; pcDNA3 control cells
T1 sequence (O75762 whole entry R3C/R58T/K186N): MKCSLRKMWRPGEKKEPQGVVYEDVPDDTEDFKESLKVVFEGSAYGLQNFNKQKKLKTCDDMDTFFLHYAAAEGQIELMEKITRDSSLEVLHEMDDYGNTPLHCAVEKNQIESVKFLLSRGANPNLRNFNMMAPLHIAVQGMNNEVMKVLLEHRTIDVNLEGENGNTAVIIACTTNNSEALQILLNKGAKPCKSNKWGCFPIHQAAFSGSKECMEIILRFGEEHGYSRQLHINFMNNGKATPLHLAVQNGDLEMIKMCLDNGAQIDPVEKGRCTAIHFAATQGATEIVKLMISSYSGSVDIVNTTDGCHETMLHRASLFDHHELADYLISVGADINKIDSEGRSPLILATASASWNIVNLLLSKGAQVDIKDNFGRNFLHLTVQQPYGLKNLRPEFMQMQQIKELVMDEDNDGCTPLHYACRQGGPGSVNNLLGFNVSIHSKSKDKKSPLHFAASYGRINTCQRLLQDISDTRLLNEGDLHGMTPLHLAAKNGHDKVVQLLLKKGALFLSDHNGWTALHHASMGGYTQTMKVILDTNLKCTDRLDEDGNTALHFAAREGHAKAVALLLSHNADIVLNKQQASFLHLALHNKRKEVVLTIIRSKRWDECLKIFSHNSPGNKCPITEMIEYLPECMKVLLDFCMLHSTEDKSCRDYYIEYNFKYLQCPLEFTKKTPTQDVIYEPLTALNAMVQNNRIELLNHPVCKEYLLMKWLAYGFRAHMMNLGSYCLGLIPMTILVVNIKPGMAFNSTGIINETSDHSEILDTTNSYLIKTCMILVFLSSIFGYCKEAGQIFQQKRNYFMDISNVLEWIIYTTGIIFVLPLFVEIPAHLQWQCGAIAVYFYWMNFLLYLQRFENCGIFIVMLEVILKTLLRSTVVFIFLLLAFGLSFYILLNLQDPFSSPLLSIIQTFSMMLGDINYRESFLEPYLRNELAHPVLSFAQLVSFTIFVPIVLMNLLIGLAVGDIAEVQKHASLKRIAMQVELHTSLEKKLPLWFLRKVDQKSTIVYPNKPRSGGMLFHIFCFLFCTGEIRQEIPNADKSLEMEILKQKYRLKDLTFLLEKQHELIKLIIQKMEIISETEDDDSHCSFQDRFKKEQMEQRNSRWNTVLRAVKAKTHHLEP

[1] = Table 1(d), 1 mM, relative to AITC 30 μM
[2] = Table 1(c), 1 mM, relative to AITC 30 μM
[3] = Table 1(c), 100 μM (*), relative to AITC 30 μM
[4] = Table 1(e), 1 mM, relative to AITC 30 μM
[5] = Table 1(d), 100 μM (*), relative to AITC 30 μM

Molecule | A1V1 activation, % of agonist value (TRPA1V1; [2]) | activation at 1000 µM (human TRPA1; [2]) [%] | other results
CCC(=O)C=CC1C(C)=CCCC1(C)C (stereo not drawn) | – | – | A1V1 activation, % of agonist value (TRPA1V1; [1]): 69.7%; A1 activation, % of agonist value (human TRPA1; [1]): 97.3%
2-mercaptopropanoate | – | – | A1V1 activation, % of agonist value (TRPA1V1; [1]): 54.3%; A1 activation, % of agonist value (human TRPA1; [1]): 101.5%
3-mercaptopropanoate | 41.8% | – | A1 activation, % of agonist value (human TRPA1; [2]): 42.7%
CC(=O)/C=C/C1C(C)=CCCC1(C)C (racemic) [(+/−)-Alpha-Ionone] | 64.21% | – | A1 activation, % of agonist value (human TRPA1; [2]): 64.62%
CC(C)[C@@H]1CC[C@@H](C)C[C@H]1O (racemic) [DL-Menthol] | 43.05% | – | A1 activation, % of agonist value (human TRPA1; [2]): 54.02%
C=C(C)C1CC=C(C)C(OC(C)=O)C1 (single isomer, unassigned; (-)) [(−)-Carvyl acetate] | 37% | – | A1 activation, % of agonist value (human TRPA1; [2]): 31.2%
Cc1c(C(=O)O)c(O)cc2c1C(=O)c1c(O)c(C3O[C@H](CO)[C@@H](O)[C@H](O)[C@H]3O)c(O)c(O)c1C2=O (stereo in doubt) [Carmine] | 61.54% | 66.2 | –
CC(S)CS (stereo not drawn) [1,2-Propanedithiol] | 73.3% | – | A1V1 activation, % of agonist value (TRPA1V1; [3]): 65.4%; A1 activation, % of agonist value (human TRPA1; [3]): 65.8%; A1 activation, % of agonist value (human TRPA1; [2]): 66%
SCCCCCCS [1,6-Hexanedithiol] | 54% | 68.6 | –
O=CC1=CCCCC1 [1-Cyclohexene-1-carboxaldehyde] | 48.37% | 45.9 | –
C/C=C(\C)C(=O)OC(CC)CCCCC (stereo not drawn) [1-Ethylhexyl Tiglate] | – | – | A1V1 activation, % of agonist value (TRPA1V1; [1]): 31.87%; activation at 1000 µM (human TRPA1; [1]): 50.6%
Cn1cccc1C=O [1-Methylpyrrole-2-carboxaldehyde] | 87.70% | 81.1 | –
CCCCCC=CC=CCO [2,4-Decadienol] | 52.2% | 48.6 | –
Cc1ccc(C=O)c(C)c1 [2,4-Dimethylbenzaldehyde] | 102.8% | 107 | –
CC=CC=CCO [2,4-Hexadienol] | 78.68% | 78 | –
CC=CC=CCOC(=O)CC [2,4-Hexadienyl propionate] | 91.20% | 93.2 | –
CCCC=CC=CC=O [2,4-Octadienal] | 82.7% | 80.9 | –
CC1(O)CSC(C)(O)CS1 (stereo not drawn) [2,5-dimethyl-1,4-dithilane-2,5-diol] | – | – | A1V1 activation, % of agonist value (TRPA1V1; [3]): 87.2%; A1 activation, % of agonist value (human TRPA1; [3]): 77.5%
Cc1cccc(C)c1S [2,6-Dimethylthiophenol] | 85.5% | 84.4 | –
CC/C=C\CC/C=C/C(OCC)OCC [2,6-Nonadiene, 1,1-diethoxy-, (E,Z)-] | 74.31% | 89.3 | –
CC(=O)c1ccc2ccccc2c1 [2-Acetylnaphthalene] | 69.41% | 60.3 | –
O=C(CCl)c1ccccc1 [2-Chloroacetophenone] | 103% | – | A1V1 activation, % of agonist value (TRPA1V1; [3]): 88.8%; activation at 100 µM (human TRPA1): 93.6%; activation at 1000 µM (human TRPA1): 91.4%
CCCCCCCCCC=CC=O [2-Dodecenal] | – | – | A1V1 activation, % of agonist value (TRPA1V1; [4]): 82.8%; activation at 1000 µM (human TRPA1; [4]): 65.5%

Molecule | A1V1 activation, % of agonist value (TRPA1V1; [2]) | activation at 1000 µM (human TRPA1; [2]) [%] | other results
CCC(CC)C(=O)O [2-Ethylbutyric acid] | – | – | A1V1 activation, % of agonist value (TRPA1V1; [1]): 34.87%; activation at 1000 µM (human TRPA1; [1]): 67.7%
Cc1ccc(CO)o1 [2-Furanmethanol, 5-methyl-] | 76.02% | 77.3 | –
O=C(OCCc1ccccc1)c1ccco1 [2-Furoic acid, phenethyl ester] | 145% | 155 | –
CC(=O)Cc1ccco1 [2-Furylacetone] | 59.5% | 60.8 | –
CCCCCC(=O)c1ccco1 [2-Hexanoylfuran] | 109% | 118 | –
CC=CC(=O)CC [2-Hexen-4-one] | – | – | A1V1 activation, % of agonist value (TRPA1V1; [1]): 24.5%; activation at 1000 µM (human TRPA1; [1]): 53%
CCCCCCCCCC(C)C=O (stereo not drawn) [2-Methylundecanal] | – | – | A1V1 activation, % of agonist value (TRPA1V1; [3]): 57.3%; activation at 100 µM (human TRPA1; [3]): 54.9%
CCCCCC=CC(=O)O [2-Octenoic acid] | 61.77% | 55.9 | –
CC=C(C=O)c1ccccc1 [2-Phenyl-2-butenal] | – | – | A1V1 activation, % of agonist value (TRPA1V1): 82.8%; activation at 1000 µM (human TRPA1): 65.8%
CC(C=O)c1ccccc1 (stereo not drawn) [2-Phenylpropionaldehyde] | 106.9% | 105 | –
CC(C)C(=O)OCC(C)c1ccccc1 (stereo not drawn) [2-Phenylpropyl isobutyrate] | – | – | A1V1 activation, % of agonist value (TRPA1V1; [4]): 102.3%; activation at 1000 µM (human TRPA1; [4]): 67.4%
CCCCCCCCCCC=CC=O [2-Tridecenal] | 102% and 101% | – | A1V1 activation, % of agonist value (TRPA1V1; [5]): 43.5%; activation at 100 µM (human TRPA1; [5]): 76.3%
CC/C=C\CC/C=C/C=O [2-trans-6-cis-Nonadienal] | 81.22% | – | A1 activation, % of agonist value (human TRPA1; [2]): 77.3%
CC(=O)c1ccc(C)cc1C [2′,4′-Dimethylacetophenone] | – | – | A1V1 activation, % of agonist value (TRPA1V1; [4]): 45.30%; activation at 1000 µM (human TRPA1; [4]): 24.4%
C=C(C)CCCC(C)CCO (stereo not drawn) [3,7-Dimethyl-7-octen-1-ol] | – | – | A1V1 activation, % of agonist value (TRPA1V1; [1]): 70.7%; activation at 1000 µM (human TRPA1; [1]): 93.7%
OCC(=CCc1ccco1)c1ccccc1 [3-(2-Furfuryl)-2-phenylpropenol] | – | – | A1V1 activation, % of agonist value (TRPA1V1; [3]): 72.4%; A1 activation, % of agonist value (human TRPA1; [3]): 81.3%
O=CC=Cc1ccco1 [3-(2-Furyl)acrolein] | 66.5% | 68.4 | –
CCCC(CCOC(C)=O)SC(C)=O (stereo not drawn) [3-(Acetylmercapto)hexyl acetate] | – | – | A1V1 activation, % of agonist value (TRPA1V1; [4]): 52.79%; activation at 1000 µM (human TRPA1; [4]): 22.3%
CCCC(CCOC(C)=O)SC (stereo not drawn) [3-(Methylthio)hexyl acetate] | 87.6% | 97.9 | –
CSCCC=O [3-(Methylthio)propionaldehyde] | – | – | A1V1 activation, % of agonist value (TRPA1V1; [1]): 32.4%; activation at 1000 µM (human TRPA1; [1]): 53.8%
CC(=O)c1cc(C)oc1C [3-Acetyl-2,5-dimethylfuran] | 61% | 73.5 | –
C=CCCN=C=S [3-Butenyl isothiocyanate] | 85.8% | 99.4 | –
CCCC=C1OC(=O)c2ccccc21 [3-Butylidenephthalide] | 115.4% | 119 | –

Molecule | A1V1 activation, % of agonist value (TRPA1V1; [2]) | activation at 1000 µM (human TRPA1; [2]) [%] | other results
CCCC=CC(C)=O [3-Hepten-2-one] | – | – | A1V1 activation, % of agonist value (TRPA1V1; [1]): 59%; activation at 1000 µM (human TRPA1; [1]): 82%
CC1=CC(=O)CCC1 [3-Methyl-2-cyclohexen-1-one] | 94.76% | 94.5 | –
CC(C)CCN=C=S [3-Methylbutyl isothiocyanate] | – | – | A1V1 activation, % of agonist value (TRPA1V1; [4]): 111.2%; activation at 1000 µM (human TRPA1; [4]): 61.1%
CC=CC(C)=O [3-Penten-2-one] | – | – | A1V1 activation, % of agonist value (TRPA1V1; [1]): 35%; activation at 1000 µM (human TRPA1; [1]): 64.2%
CC1=NC(CC(C)C)SC1C (stereo not drawn) [3-Thiazoline, 4,5-dimethyl-2-isobutyl-] | 138.7% | 142 | –
CCOc1ccc(C=O)cc1 [4-Ethoxybenzaldehyde] | – | – | A1V1 activation, % of agonist value (TRPA1V1; [4]): 103%; activation at 1000 µM (human TRPA1; [4]): 62%
COc1ccc(CCC(C)=O)cc1 [4-Methoxybenzylacetone] | 71.16% | 62.3 | –
CC(=O)OCc1ccc(C)cc1 [4-Methylbenzyl acetate] | – | – | A1V1 activation, % of agonist value (TRPA1V1; [4]): 88.05%; activation at 1000 µM (human TRPA1; [4]): 58.9%
C=CCCC=O [4-Pentenal] | 84.24% | 75.4 | –
CC(C)CC=C(C=O)c1ccccc1 [5-Methy1-2-pheny1-2-hexenal] | – | – | A1V1 activation, % of agonist value (TRPA1V1; [4]): 89.8%; A1 activation, % of agonist value (human TRPA1; [4]): 60.5%
COc1ccc2ncccc2c1 [6-Methoxyquinoline] | – | – | A1V1 activation, % of agonist value (TRPA1V1; [4]): 130.5%; activation at 1000 µM (human TRPA1; [4]): 57.8%
C=CCCCCCCCCC=O [10-Undecenal] | – | – | A1V1 activation, % of agonist value (TRPA1V1; [1]): 28%; activation at 1000 µM (human TRPA1; [1]): 61.8%
CCCCCCCC/C=C/C=O [(2E)-Undecenal] | 48.8% | – | A1 activation, % of agonist value (human TRPA1; [2]): 59.6%
CCCC/C=C/C=O [(E)-2-Heptenal] | 96.6% | 112 | –
CCCCC/C=C/C=C/C=O [(E,E)-2,4-Decadienal] | – | – | A1V1 activation, % of agonist value (TRPA1V1; [1]): 46%; activation at 1000 µM (human TRPA1; [1]): 142%
CCCCCCC/C=C/C=C/C=O [(E,E)-2,4-Dodecadienal] | – | – | A1V1 activation, % of agonist value (TRPA1V1; [1]): 55.4%; activation at 1000 µM (human TRPA1; [1]): 159%
C/C=C/C=C/C=O [(E,E)-2,4-Hexadienal] | 108.71% | 92 | –
CC/C=C/CC/C=C/C=O [(E,E)-2,6-Nonadienal] | 89.61% | 87.1 | –
CC/C=C/C=C/CO [(E,E)-Hepta-2,4-dien-1-ol] | 133.3% | 146 | –
CC(C)=CCC[C@](C)(O)[C@@H]1CC=C(C)CC1 [(−)-Alpha-Bisabolol] | 83.53% | – | A1 activation, % of agonist value (human TRPA1; [2]): 71.26%
Ammonium carbonate | 58.42% | – | –
